Results from patent US9617267B2, “Compounds and methods for kinase modulation, and indications therefor” (Plexxikon Inc., priority 2009, dated 2017).
Like-named read-outs stand apart in the source and are kept apart here.

Columns and labels:
B-Raf V600E = B-Raf V600E (Homo sapiens (Human), UniProt P15056, V600E); experiment: B-Raf V600E kinase activity biochemical assay (AlphaScreen, biotin-MEK1 phosphorylation); settings: for IC50: B-Raf V600E; for Biochemical activity ratio V600E/C: ratio of IC50 B-Raf V600E / c-Raf-1
Outline: (§1)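 Compounds from a 0.1 mM DMSO stock were tested at 8 serially diluted points. Kinase reactions with 100 μM ATP (final) ran 45 min at room temperature, then were stopped with EDTA buffer containing anti-phospho-MEK1/2 antibody plus streptavidin donor and protein A acceptor beads.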

B-Raf [1] = experiment: B-Raf kinase activity biochemical assay (AlphaScreen, biotin-MEK1 phosphorylation); settings: for Biochemical activity ratio B/V600E: ratio of IC50 B-Raf / B-Raf V600E; for Biochemical activity ratio B/C: ratio of IC50 B-Raf / c-Raf-1
Outline: as §1

B-Raf [2] = target: B-Raf (Homo sapiens (Human), UniProt P15056); experiment: as above; settings: B-Raf
Outline: as §1

CYP2D6 = CYP2D6 (Homo sapiens (Human), UniProt P10635); experiment: CYP enzyme inhibition, fluorescent substrate (AMMC); type: in vitro ADME; settings: read-out: Cyp IC50 2D6
Outline: (§2)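 IC50 derived from loss of fluorescent metabolite across a 10-point 1:1 dilution series. CYP2D6: 1.5 pmol enzyme, 1.5 μM AMMC, 30 min at 37 °C, 409/530 nm; CYP1A2: 0.5 pmol, 5 μM CEC, 15 min, 409/460 nm. Compounds pre-incubated 10 min in NADPH-regenerating mix.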

c-Raf-1 = c-Raf-1 (Homo sapiens, UniProt P04049); experiment: c-Raf-1 kinase activity biochemical assay (AlphaScreen, biotin-MEK1 phosphorylation)
Outline: as §1

[3] = Relative solubility by turbidity threshold concentration in aqueous buffers (pH 1.5, 4.5, 6.8, 7.4); type: physicochemical; settings: for turbidity threshold (L, M, H) 1.4: pH 1.4 [sic] (method: SGF pH 1.5); for turbidity threshold (L, M, H) 4.5: pH 4.5 (SIF); for turbidity threshold (L, M, H) 6.8: pH 6.8 (SIF); for turbidity threshold (L, M, H) 7.4: pH 7.4 (HEPES)
Outline: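 Solubility class (high >250 μM, moderate 31.3–250 μM, low <31.3 μM) comes from the concentration where absorbance reaches a 0.01 threshold, averaged across 490/535/650 nm. Samples were compound dilutions from DMSO stock, 1 μL into 99 μL buffer at pH 1.5, 4.5, 6.8 or 7.4.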

CYP3A4(BFC) = CYP3A4(BFC) (Homo sapiens (Human), UniProt P08684); experiment: CYP enzyme inhibition, fluorescent substrate BFC
Outline: (§3)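 10-pt 1:1 serial dilution in co-factor mix (DMSO stock 100 mM); 10 min preincubation, 37 °C; reaction at 37 °C. Readout: fluorescent metabolite of probe substrate. IC50 from signal vs [compound].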

CYP3A4(BQ) = CYP3A4(BQ) (Homo sapiens (Human), UniProt P08684); experiment: CYP enzyme inhibition, fluorescent substrate BQ
Outline: as §3

CYP1A2 = CYP1A2 (Homo sapiens (Human), UniProt P05177); experiment: CYP enzyme inhibition, fluorescent substrate (CEC)
Outline: as §2

CYP2C9 = CYP2C9 (Homo sapiens (Human), UniProt P11712); experiment: CYP enzyme inhibition, fluorescent substrate (MFC)
Outline: as §3

CYP2C19 = CYP2C19 (Homo sapiens (Human), UniProt P33261); experiment: CYP enzyme inhibition, fluorescent substrate (CEC)
Outline: as §3

[4] = read-out: Cyp IC50 3A4(BFC), CYP3A4, substrate BFC
[5] = read-out: Cyp IC50 3A4(BQ), CYP3A4, substrate BQ
[6] = read-out: Cyp IC50 2C9, CYP2C9, substrate MFC
[7] = read-out: Cyp IC50 2C19, CYP2C19, substrate CEC

Chain of B-Raf (Homo sapiens (Human), UniProt P15056) (P15056 whole entry): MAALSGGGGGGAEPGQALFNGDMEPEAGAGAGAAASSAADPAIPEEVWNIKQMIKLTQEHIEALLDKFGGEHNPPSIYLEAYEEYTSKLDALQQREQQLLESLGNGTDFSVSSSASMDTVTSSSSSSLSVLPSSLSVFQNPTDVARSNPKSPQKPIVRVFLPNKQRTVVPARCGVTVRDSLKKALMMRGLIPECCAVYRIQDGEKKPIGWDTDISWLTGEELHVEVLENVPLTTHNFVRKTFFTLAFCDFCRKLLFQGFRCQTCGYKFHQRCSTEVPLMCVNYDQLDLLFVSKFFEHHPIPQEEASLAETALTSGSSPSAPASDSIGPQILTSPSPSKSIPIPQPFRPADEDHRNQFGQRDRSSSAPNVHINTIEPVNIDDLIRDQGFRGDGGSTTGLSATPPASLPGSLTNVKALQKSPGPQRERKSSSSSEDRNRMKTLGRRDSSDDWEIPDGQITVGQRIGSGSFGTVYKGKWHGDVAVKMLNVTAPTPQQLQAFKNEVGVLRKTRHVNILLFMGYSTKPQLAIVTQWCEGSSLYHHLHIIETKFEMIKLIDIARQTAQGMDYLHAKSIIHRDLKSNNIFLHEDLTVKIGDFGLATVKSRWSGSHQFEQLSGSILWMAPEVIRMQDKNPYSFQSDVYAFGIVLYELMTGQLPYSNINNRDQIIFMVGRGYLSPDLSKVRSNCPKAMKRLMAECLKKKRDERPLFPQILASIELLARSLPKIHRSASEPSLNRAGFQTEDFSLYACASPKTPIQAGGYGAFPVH
Chain of CYP2C9 (P11712 whole entry): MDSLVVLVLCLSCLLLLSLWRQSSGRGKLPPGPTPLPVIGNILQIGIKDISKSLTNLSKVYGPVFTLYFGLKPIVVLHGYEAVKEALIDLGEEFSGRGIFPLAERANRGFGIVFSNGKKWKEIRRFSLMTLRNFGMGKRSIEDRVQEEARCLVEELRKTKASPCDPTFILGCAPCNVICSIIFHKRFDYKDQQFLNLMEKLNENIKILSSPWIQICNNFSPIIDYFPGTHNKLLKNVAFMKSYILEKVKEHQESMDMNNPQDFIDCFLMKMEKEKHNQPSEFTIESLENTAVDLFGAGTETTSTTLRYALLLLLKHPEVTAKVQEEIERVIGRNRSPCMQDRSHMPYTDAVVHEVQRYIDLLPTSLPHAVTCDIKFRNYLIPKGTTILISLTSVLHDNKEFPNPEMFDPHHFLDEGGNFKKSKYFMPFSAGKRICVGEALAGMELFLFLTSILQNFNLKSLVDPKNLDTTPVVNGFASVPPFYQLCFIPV
Chain of B-Raf V600E (P15056 whole entry V600E): as the sequence (P15056 whole entry) above, with V600E counted along it
Chain of CYP1A2 (P05177 whole entry): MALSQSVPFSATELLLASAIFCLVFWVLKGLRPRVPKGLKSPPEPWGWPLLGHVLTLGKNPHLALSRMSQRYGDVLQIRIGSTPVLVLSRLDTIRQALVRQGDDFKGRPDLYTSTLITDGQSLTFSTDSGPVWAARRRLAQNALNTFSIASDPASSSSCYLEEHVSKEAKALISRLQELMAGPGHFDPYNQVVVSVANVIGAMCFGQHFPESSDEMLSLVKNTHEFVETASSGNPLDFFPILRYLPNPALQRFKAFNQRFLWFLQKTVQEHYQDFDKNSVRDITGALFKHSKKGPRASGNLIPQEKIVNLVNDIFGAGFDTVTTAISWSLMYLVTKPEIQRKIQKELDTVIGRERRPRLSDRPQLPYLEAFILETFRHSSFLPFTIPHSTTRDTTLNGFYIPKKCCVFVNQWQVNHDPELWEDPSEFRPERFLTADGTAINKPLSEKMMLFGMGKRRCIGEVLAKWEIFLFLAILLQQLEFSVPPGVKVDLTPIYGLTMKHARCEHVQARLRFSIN
Chain of CYP3A4(BQ) (P08684 whole entry): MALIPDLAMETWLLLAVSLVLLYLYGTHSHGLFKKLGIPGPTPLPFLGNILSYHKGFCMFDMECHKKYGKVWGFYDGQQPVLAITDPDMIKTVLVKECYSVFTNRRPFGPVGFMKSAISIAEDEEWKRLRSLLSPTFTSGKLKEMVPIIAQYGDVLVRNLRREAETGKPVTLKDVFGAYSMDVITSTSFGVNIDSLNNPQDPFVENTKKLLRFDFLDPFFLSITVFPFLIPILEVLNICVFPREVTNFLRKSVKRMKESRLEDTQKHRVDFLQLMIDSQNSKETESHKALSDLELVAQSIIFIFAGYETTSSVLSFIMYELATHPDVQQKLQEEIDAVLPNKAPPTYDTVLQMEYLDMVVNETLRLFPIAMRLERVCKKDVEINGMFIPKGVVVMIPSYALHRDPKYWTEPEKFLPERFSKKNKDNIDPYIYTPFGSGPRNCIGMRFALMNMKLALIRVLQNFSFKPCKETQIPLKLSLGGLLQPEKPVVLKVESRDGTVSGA
Chain of CYP3A4(BFC) (P08684 whole entry): as above
Chain of c-Raf-1 (P04049 whole entry, looked up): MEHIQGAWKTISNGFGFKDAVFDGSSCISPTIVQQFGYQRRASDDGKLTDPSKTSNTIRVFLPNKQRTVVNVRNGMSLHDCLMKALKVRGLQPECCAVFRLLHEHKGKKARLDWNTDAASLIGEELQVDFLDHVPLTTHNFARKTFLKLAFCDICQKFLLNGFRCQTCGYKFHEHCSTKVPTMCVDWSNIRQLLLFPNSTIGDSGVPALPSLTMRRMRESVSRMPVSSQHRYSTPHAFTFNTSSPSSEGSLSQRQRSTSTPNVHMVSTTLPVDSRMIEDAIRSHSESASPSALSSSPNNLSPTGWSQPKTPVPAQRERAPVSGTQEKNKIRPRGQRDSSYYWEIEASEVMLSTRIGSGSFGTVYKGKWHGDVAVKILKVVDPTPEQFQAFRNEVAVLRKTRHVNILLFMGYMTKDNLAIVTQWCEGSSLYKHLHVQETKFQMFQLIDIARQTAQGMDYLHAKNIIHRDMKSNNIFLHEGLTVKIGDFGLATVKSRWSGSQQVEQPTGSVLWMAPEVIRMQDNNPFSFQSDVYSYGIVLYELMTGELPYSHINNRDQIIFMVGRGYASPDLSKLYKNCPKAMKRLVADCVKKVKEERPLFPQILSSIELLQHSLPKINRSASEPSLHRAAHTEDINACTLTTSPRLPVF
Chain of CYP2D6 (P10635 whole entry): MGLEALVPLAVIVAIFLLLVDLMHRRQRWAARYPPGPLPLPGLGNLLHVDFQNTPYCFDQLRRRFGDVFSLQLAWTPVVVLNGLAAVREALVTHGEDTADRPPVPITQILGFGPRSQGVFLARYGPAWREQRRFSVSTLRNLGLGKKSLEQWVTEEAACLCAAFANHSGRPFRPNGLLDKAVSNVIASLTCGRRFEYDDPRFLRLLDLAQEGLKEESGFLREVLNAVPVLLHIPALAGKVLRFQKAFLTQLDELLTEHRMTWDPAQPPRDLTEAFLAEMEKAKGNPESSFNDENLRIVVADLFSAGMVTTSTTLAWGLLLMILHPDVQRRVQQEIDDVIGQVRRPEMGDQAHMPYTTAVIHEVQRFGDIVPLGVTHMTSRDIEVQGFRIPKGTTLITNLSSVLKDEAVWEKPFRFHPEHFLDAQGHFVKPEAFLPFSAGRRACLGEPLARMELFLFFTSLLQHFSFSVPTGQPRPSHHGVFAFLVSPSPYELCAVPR
Chain of CYP2C19 (P33261 whole entry): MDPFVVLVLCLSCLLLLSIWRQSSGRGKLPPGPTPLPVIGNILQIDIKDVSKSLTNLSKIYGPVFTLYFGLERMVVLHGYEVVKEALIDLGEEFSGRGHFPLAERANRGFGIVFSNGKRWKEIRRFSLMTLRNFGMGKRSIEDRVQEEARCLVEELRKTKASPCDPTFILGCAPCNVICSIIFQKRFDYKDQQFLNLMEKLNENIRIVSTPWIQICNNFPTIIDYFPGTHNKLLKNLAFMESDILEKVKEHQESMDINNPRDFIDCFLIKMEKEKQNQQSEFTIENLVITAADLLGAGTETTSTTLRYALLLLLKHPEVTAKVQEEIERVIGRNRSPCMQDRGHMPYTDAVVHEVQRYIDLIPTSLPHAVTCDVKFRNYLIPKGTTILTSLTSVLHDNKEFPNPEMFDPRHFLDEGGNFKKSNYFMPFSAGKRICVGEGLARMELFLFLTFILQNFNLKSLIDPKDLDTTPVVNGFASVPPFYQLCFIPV

SMILES | IC50 (B-Raf V600E) [µM] | Biochemical activity ratio V600E/C (B-Raf V600E) | Biochemical activity ratio B/V600E (B-Raf [1]) | Biochemical activity ratio B/C (B-Raf [1]) | IC50 (B-Raf [2]) [µM] | IC50 (CYP2D6) [µM] | IC50 (c-Raf-1) [µM] | turbidity threshold (L, M, H) 1.4 [3] | turbidity threshold (L, M, H) 4.5 [3] | turbidity threshold (L, M, H) 6.8 [3] | turbidity threshold (L, M, H) 7.4 [3] | IC50 (CYP3A4(BFC); [4]) [µM] | IC50 (CYP3A4(BQ); [5]) [µM] | IC50 (CYP1A2; human, 15 min) [µM] | IC50 (CYP2C9; [6]) [µM] | IC50 (CYP2C19; [7]) [µM] | IC50 (CYP3A4(BFC)) [µM] | IC50 (CYP3A4(BQ)) [µM] | IC50 (CYP2C9) [µM] | IC50 (CYP2C19) [µM] | other results
CN(C)CCNc1ncnc2[nH]cc(C(=O)c3c(F)ccc(NS(=O)(=O)c4ccc(C(F)(F)F)cc4)c3F)c12 [P-1059, N-{3-[4-(2-Dimethylamino-ethylamino)-7H-pyrrolo[2,3-d]pyrimidine-5-carbonyl]-2,4-difluoro-phenyl}-4-trifluoromethyl-benzenesulfonamide] | > 0.1 | >10 | 0.1-10 | 0.1-10 | > 0.1 | > 10 | < 0.1 | H (high solubility if the threshold concentration is >250 μm) | M (moderate solubility if the threshold concentration is 31.3 μM to 250 μM) | M (moderate solubility if the threshold concentration is 31.3 μM to 250 μM) | M (moderate solubility if the threshold concentration is 31.3 μM to 250 μM) | > 10 | > 10 | > 10 | > 10 | > 10 |  |  |  |  | 
CCCS(=O)(=O)Nc1ccc(F)c(C(=O)c2c[nH]c3ncnc(NC4COC4)c23)c1F [P-1060, Propane-1-sulfonic acid {2,4-difluoro-3-[4-(oxetan-3-ylamino)-7H-pyrrolo[2,3-d]pyrimidine-5-carbonyl]-phenyl}-amide] | < 0.1 | 0.1-10 | 0.1-10 | >10 | < 0.1 | > 10 | < 0.1 | H (high solubility if the threshold concentration is >250 μm) | M (moderate solubility if the threshold concentration is 31.3 μM to 250 μM) | H (high solubility if the threshold concentration is >250 μm) | H (high solubility if the threshold concentration is >250 μm) | > 10 | > 10 | > 10 | > 10 | > 10 |  |  |  |  | 
O=C(c1c(F)ccc(NS(=O)(=O)c2ccc(C(F)(F)F)cc2)c1F)c1c[nH]c2ncnc(N3CCCC3)c12 [P-1061, N-[2,4-Difluoro-3-(4-pyrrolidin-1-yl-7H-pyrrolo[2,3-d]pyrimidine-5-carbonyl)-phenyl]-4-trifluoromethyl-benzenesulfonamide] | > 0.1 | >10 | 0.1-10 | 0.1-10 | > 0.1 | > 10 | > 0.1 | H (high solubility if the threshold concentration is >250 μm) | M (moderate solubility if the threshold concentration is 31.3 μM to 250 μM) | M (moderate solubility if the threshold concentration is 31.3 μM to 250 μM) | H (high solubility if the threshold concentration is >250 μm) | > 10 | > 10 | > 10 | > 10 | > 10 |  |  |  |  | 
Cn1cc(Nc2ncnc3[nH]cc(C(=O)c4c(F)ccc(NS(=O)(=O)c5ccc(C(F)(F)F)cc5)c4F)c23)cn1 [P-1062, N-{2,4-Difluoro-3-[4-(1-methyl-1H-pyrazol-4-ylamino)-7H-pyrrolo[2,3-d]pyrimidine-5-carbonyl]-phenyl}-4-trifluoromethyl-benzenesulfonamide] | < 0.1 | >10 | 0.1-10 | >10 | < 0.1 | > 10 | < 0.1 | L (low solubility if the threshold concentration is <31.3 μM) | L (low solubility if the threshold concentration is <31.3 μM) | L (low solubility if the threshold concentration is <31.3 μM) | L (low solubility if the threshold concentration is <31.3 μM) |  |  | > 10 | < 5 | > 10 | 5 to 10 | 5 to 10 |  |  | 
CCn1cc(Nc2ncnc3[nH]cc(C(=O)c4c(F)ccc(NS(=O)(=O)c5ccc(C(F)(F)F)cc5)c4F)c23)cn1 [P-1063, N-{3-[4-(1-Ethyl-1H-pyrazol-4-ylamino)-7H-pyrrolo[2,3-d]pyrimidine-5-carbonyl]-2,4-difluoro-phenyl}-4-trifluoromethyl-benzenesulfonamide] | > 0.1 | >10 | 0.1-10 | >10 | < 0.1 | > 10 | < 0.1 | L (low solubility if the threshold concentration is <31.3 μM) | L (low solubility if the threshold concentration is <31.3 μM) | L (low solubility if the threshold concentration is <31.3 μM) | L (low solubility if the threshold concentration is <31.3 μM) |  | < 5 | > 10 |  |  | 5 to 10 |  | 5 to 10 | 5 to 10 | 
CCCS(=O)(=O)Nc1ccc(F)c(C(=O)c2c[nH]c3ncc(C)c(Cl)c23)c1F [P-2001, Propane-1-sulfonic acid [3-(4-chloro-5-methyl-1H-pyrrolo[2,3-b]pyridine-3-carbonyl)-2,4-difluoro-phenyl]-amide] | < 0.1 | 0.1-10 | 0.1-10 | 0.1-10 | < 0.1 | > 10 | < 0.1 | M (moderate solubility if the threshold concentration is 31.3 μM to 250 μM) | M (moderate solubility if the threshold concentration is 31.3 μM to 250 μM) | M (moderate solubility if the threshold concentration is 31.3 μM to 250 μM) | M (moderate solubility if the threshold concentration is 31.3 μM to 250 μM) |  |  |  |  |  | > 10 | > 10 | > 10 | 5 to 10 | IC50 (CYP1A2): > 10 µM
CCCS(=O)(=O)Nc1ccc(F)c(C(=O)c2c[nH]c3ncc(OC)c(Cl)c23)c1F [P-2002, Propane-1-sulfonic acid [3-(4-chloro-5-methoxy-1H-pyrrolo[2,3-b]pyridine-3-carbonyl)-2,4-difluoro-phenyl]-amide] | < 0.1 | 0.1-10 | 0.1-10 | 0.1-10 | < 0.1 | > 10 | < 0.1 | M (moderate solubility if the threshold concentration is 31.3 μM to 250 μM) | M (moderate solubility if the threshold concentration is 31.3 μM to 250 μM) | M (moderate solubility if the threshold concentration is 31.3 μM to 250 μM) | M (moderate solubility if the threshold concentration is 31.3 μM to 250 μM) |  |  |  |  |  | 5 to 10 | 5 to 10 | < 5 | < 5 | IC50 (CYP1A2): > 10 µM
CCCS(=O)(=O)Nc1ccc(F)c(C(=O)c2c[nH]c3ncc(F)c(C#N)c23)c1F [P-2003, Propane-1-sulfonic acid [3-(4-cyano-5-fluoro-1H-pyrrolo[2,3-b]pyridine-3-carbonyl)-2,4-difluoro-phenyl]-amide] | < 0.1 | 0.1-10 | 0.1-10 | 0.1-10 | < 0.1 | > 10 | < 0.1 | M (moderate solubility if the threshold concentration is 31.3 μM to 250 μM) | M (moderate solubility if the threshold concentration is 31.3 μM to 250 μM) | M (moderate solubility if the threshold concentration is 31.3 μM to 250 μM) | M (moderate solubility if the threshold concentration is 31.3 μM to 250 μM) |  |  |  |  |  | 5 to 10 | 5 to 10 | < 5 | > 10 | IC50 (CYP1A2): > 10 µM
